Measurements published in ChEMBL document CHEMBL1201862, “PubChem BioAssay data set” (2004).
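Five concentrations, 48 hours, 96-well plates. GI50 is the concentration that inhibits growth by half.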 Activity calls are given as the source filed them. No stated cut-off is given here; in the data, active = GI50 up to about 1.1 µM and inactive = higher. *1 amine or outer side, *2 acyl side, *3 side chain or, on linkers, in order; H or OH if unused. Where a SMILES comes first, the peptide text is derived from it. Bridges are numbered along the chain shown (N, C = ends). Roman numbers before positions name the chains, in order. [ ]: non-standard residue; d: D form. Actinocin(1to9) = Cc1c2oc3c(C)ccc(C(=O)[*:2])c3nc-2c(C(=O)[*:1])c(N)c1=O; NMeV = CN[CH](C(=O)O)C(C)C; Sar = CNCC(=O)O

Columns and labels:
Assay in all cases: inhibition of tumour cell growth, NCI panel, 48 h
786-0 = test system: 786-0
A498 = test system: A498
A549 = test system: A549
ACHN = test system: ACHN
BT-549 = test system: BT-549
CAKI-1 = test system: CAKI-1
CCRF-CEM = test system: CCRF-CEM
COLO 205 = test system: COLO 205
DU-145 = test system: DU-145
EKVX = test system: EKVX
HCC 2998 = test system: HCC 2998
HCT-116 = test system: HCT-116
HCT-15 = test system: HCT-15
HL-60 = test system: HL-60
HOP-62 = test system: HOP-62
HT-29 = test system: HT-29
Hs-578T = test system: Hs-578T
IGROV-1 = test system: IGROV-1
K562 = test system: K562
KM12 = test system: KM12
LOX IMVI = test system: LOX IMVI
M14 = test system: M14
MCF7 = test system: MCF7
MDA-MB-231 = test system: MDA-MB-231
MDA-MB-435 = test system: MDA-MB-435
MDA-N = test system: MDA-N
MOLT-4 = test system: MOLT-4
Malme-3M = test system: Malme-3M
NCI-H226 = test system: NCI-H226
NCI-H23 = test system: NCI-H23
NCI-H460 = test system: NCI-H460
NCI-H522 = test system: NCI-H522
NCI/ADR-RES = test system: NCI/ADR-RES
OVCAR-3 = test system: OVCAR-3
OVCAR-4 = test system: OVCAR-4
OVCAR-5 = test system: OVCAR-5
OVCAR-8 = test system: OVCAR-8
PC-3 = test system: PC-3
RPMI-8226 = test system: RPMI-8226
RXF 393 = test system: RXF 393
SF-268 = test system: SF-268
SF-295 = test system: SF-295
SF-539 = test system: SF-539
SK-MEL-28 = test system: SK-MEL-28
SK-MEL-2 = test system: SK-MEL-2
SK-MEL-5 = test system: SK-MEL-5
SK-OV-3 = test system: SK-OV-3
SN12C = test system: SN12C
SNB-19 = test system: SNB-19
SNB-75 = test system: SNB-75
SR = test system: SR
SW-620 = test system: SW-620
T47D = test system: T47D
TK-10 = test system: TK-10
U-251 = test system: U-251
UACC-257 = test system: UACC-257
UACC-62 = test system: UACC-62
UO-31 = test system: UO-31
HOP-92 = test system: HOP-92

Measured: GI50

COc1ccc(CC2NC(=O)C(NC(=O)c3c4nc5c(C(=O)NC6C(=O)NC(Cc7ccc(OC)cc7)C(=O)N7CCCC7C(=O)N(C)CC(=O)N(C)C(C(C)C)C(=O)OC6C)ccc(C)c5oc-4c(C)c(=O)c3N)C(C)OC(=O)C(C(C)C)N(C)C(=O)CN(C)C(=O)C3CCCN3C2=O)cc1 (stereo not given) (I: TY(Me)P[Sar][NMeV] / II: TY(Me)P[Sar][NMeV]; ester I:1-I:C, II:1-II:C; linker I:N-II:N via Actinocin(1to9); configuration not given here)
57.9 nM: HCT-15
active: 786-0 14.1 nM | A498 2.99 nM | A549 < 1 nM | ACHN < 1 nM | BT-549 10 nM | CAKI-1 8.69 nM | CCRF-CEM < 1 nM | COLO 205 < 1 nM | DU-145 < 1 nM | EKVX 164 nM | HCC 2998 1.2 nM | HCT-116 < 1 nM | HL-60 < 1 nM | HOP-62 6.81 nM | HT-29 < 1 nM | Hs-578T 22 nM | IGROV-1 < 1 nM | K562 < 1 nM | KM12 < 1 nM | LOX IMVI < 1 nM | M14 6.78 nM | MCF7 < 1 nM | MDA-MB-231 37.1 nM | MDA-MB-435 < 1 nM | MDA-N < 1 nM | MOLT-4 < 1 nM | Malme-3M < 1 nM | NCI-H226 13.5 nM | NCI-H23 1.47 nM | NCI-H460 < 1 nM | NCI-H522 < 1 nM | NCI/ADR-RES 480 nM | OVCAR-3 12.3 nM | OVCAR-4 48.5 nM | OVCAR-5 2.67 nM | OVCAR-8 < 1 nM | PC-3 < 1 nM | RPMI-8226 < 1 nM | RXF 393 10 nM | SF-268 21.9 nM | SF-295 10 nM | SF-539 < 1 nM | SK-MEL-28 < 1 nM | SK-MEL-2 15 nM | SK-MEL-5 < 1 nM | SK-OV-3 11.6 nM | SN12C < 1 nM | SNB-19 < 1 nM | SNB-75 1.09 nM | SR < 1 nM | SW-620 < 1 nM | T47D < 1 nM | TK-10 35.1 nM | U-251 < 1 nM | UACC-257 < 1 nM | UACC-62 < 1 nM | UO-31 8.22 nM

CSC1=Nc2ccccc2N(C)c2c1c(-c1ccccc1)nn2C
inactive: A549 50400 nM | ACHN 29900 nM | BT-549 57700 nM | CAKI-1 > 100000 nM | CCRF-CEM 22100 nM | COLO 205 38000 nM | DU-145 91600 nM | EKVX 65500 nM | HCC 2998 13300 nM | HCT-116 22100 nM | HL-60 15200 nM | HOP-92 29500 nM | HT-29 21700 nM | Hs-578T 68900 nM | IGROV-1 42900 nM | K562 17800 nM | KM12 21800 nM | LOX IMVI 29100 nM | M14 41900 nM | MCF7 23800 nM | MDA-MB-231 45200 nM | MDA-MB-435 28400 nM | MDA-N 27700 nM | MOLT-4 8990 nM | NCI-H23 14100 nM | NCI-H460 21900 nM | NCI-H522 7400 nM | NCI/ADR-RES 21800 nM | OVCAR-3 15200 nM | OVCAR-4 43100 nM | OVCAR-5 > 100000 nM | OVCAR-8 32700 nM | PC-3 35100 nM | RPMI-8226 12700 nM | RXF 393 15600 nM | SF-268 17000 nM | SF-295 4940 nM | SF-539 63700 nM | SK-MEL-28 > 100000 nM | SK-MEL-2 23200 nM | SK-MEL-5 17800 nM | SK-OV-3 37300 nM | SN12C 54500 nM | SNB-75 > 100000 nM | SR 16100 nM | SW-620 40600 nM | T47D 9790 nM | TK-10 66800 nM | U-251 31400 nM | UACC-257 73100 nM | UACC-62 35200 nM
56900 nM: HCT-15
